The record followed here is PMC7529893, “Structural basis for substrate recognition and chemical inhibition of oncogenic MAGE ubiquitin ligases” (Nature Communications, 2020).

“Also recorded” adds a separate entry of the source.

A short description of data set [1]: High throughput Caco-2 permeability. The class given is in vitro ADME. Conditions: human, Caco-2, pH 7.4, 10 µmol/l, 2 h; for Papp A→B at 2 h, 10 µmol/l: apical to basolateral; for Papp B→A at 2 h, 10 µmol/l: basolateral to apical. As to the method:
(§1) High throughput Caco-2 permeability was performed in the TranswellR 0.4 µm polycarbonate membrane 96-well system with modified methods. Caco-2 cells were maintained at 37 °C in a humidified incubator with an atmosphere of 5% CO2. The cells were cultured in 75 cm^2 flasks with Dulbecco’s Modified Eagle’s Medium (DMEM) containing 10% (v/v) FBS, 1% (v/v) non-essential amino acids (NEAA), 100 units/ml of penicillin, and 100 µg/ml of streptomycin. The Caco-2 cells were seeded onto inserts at a density of 2 × 10^4 cells/insert separately. The medium in the wells was exchanged each other day, and the trans epithelial electrical resistance (TEER) value was measured using an epithelial voltohm meter (Millipore, Billerica, Massachusetts). […] For transport experiments, each cultured monolayer on the 96-well plate was washed twice with a transport buffer (HBSS containing 25 mM HEPES, pH 7.4). The permeability assay was initiated by the addition of each compound solution (10 µmol/l) into inserts (apical side, A) or receivers (basolateral side, B). The Caco-2 cell monolayers were incubated for 2 h at 37 °C. Fractions were collected from receivers (if apical to basal permeability) or inserts (if basal to apical permeability), and concentrations were assessed by UPLC/MS (Waters; Milford, MA). All compounds were tested in triplicates. The A → B (or B → A) apparent permeability coefficients (Papp) of each compound were calculated using the equation, Papp = dQ/dt × 1/AC0, where dQ/dt equals the flux of a drug across the monolayer, A equals the total insert well surface area, and C0 is the initial concentration of substrate in the donor compartment. The efflux ratio was determined by dividing the Papp in the B-A direction by the Papp in the A-B direction.

Data set [2] relates to PCF11 degradation by MAGE-A11 in HEK293FT cells. As to the kind of experiment: PCF11 degradation by MAGE-A11, immunoblot in HEK293FT cells. Type of data set: cell-based. As to the method: HEK293FT, HeLa and DAOY cells were grown in DMEM (Gibco) supplemented with 10% (v/v) FBS (Hyclone), 2 mM L-glutamine, 100 units/ml penicillin, 100 units/ml streptomycin, and […] amphotericin B (Invitrogen). HEK293FT and DAOY cells were transfected with either HA-FLAG-vector, FLAG-MAGE-A11 wild-type or SBC mutants using Effectene (QIAGEN) according to the manufacturer’s protocol in 6 cm^2 plates. After 48 h, cells were selected with 1 µg/ml puromycin (Sigma) over 2 weeks.
For western blotting, samples in SDS sample buffer were resolved on SDS-PAGE gels and then transferred to nitrocellulose membranes prior to blocking in TBST with 5% (w/v) milk powder or 3% (w/v) bovine serum albumin and probing with primary and secondary antibodies (GE Healthcare). Primary antibodies were: anti-Myc (Sigma, #C3956), anti-FLAG (Sigma, #F3165), anti-HUWE1 (Novus Biologicals, #NB 100-652), anti-PCF11 (Bethyl Laboratories, #A303-706A), anti-GAPDH (Cell Signaling Technology, #2118), anti-TRIM28 (Abcam, #ab22553), anti-AMPKα1 (Cell Signaling Technology, #2795), and anti-MMS19 (Proteintech, #16015-1-AP) and Tb-anti-GST (Invitrogen, #PV3551). Secondary antibodies were: Donkey Anti-Rabbit IgG (GE Healthcare, NA934V) and Sheep Anti-Mouse IgG (GE Healthcare, NA931V). […]
A general note: Immunoblotting shows a protein as a band on a membrane.

For another data set, the target named is T1, His-SUMO-MAGE-A11 MHD (Homo sapiens, UniProt P43364).
T1 construct: made in house; host or cells: bacteria
T1 sequence (P43364 218-429): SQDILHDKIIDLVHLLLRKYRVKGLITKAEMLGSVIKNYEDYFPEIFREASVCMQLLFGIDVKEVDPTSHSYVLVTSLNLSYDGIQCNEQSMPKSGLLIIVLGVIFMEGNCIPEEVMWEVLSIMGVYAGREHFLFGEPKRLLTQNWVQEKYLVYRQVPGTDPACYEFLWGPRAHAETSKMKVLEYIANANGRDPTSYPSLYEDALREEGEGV
As to the kind of experiment: Nano-differential scanning fluorimetry (NanoDSF). Type of data set: binding. As to conditions: six-point dose response, protein 10 µM. As to the method:
For NanoDSF measurements, a Prometheus NT.48 instrument (NanoTemper Technologies) was used to determine the melting temperatures. Triplicate samples were prepared in a standard 384-well PCR plate with His-SUMO-MAGE-A11 at 10 µM and ligand concentrations as noted. After incubating the protein and ligands for at least 30 min, capillaries were filled with 10 μL of sample and placed on the sample holder. DMSO was used as a negative reference control while PCF11_6 peptide was used as a positive control validating the assay. A temperature gradient of 1 °C min^−1 from 25 to 95 °C was applied and the intrinsic protein fluorescence at 330 and 350 nm was recorded. The 350 nm to 330 nm ratios of fluorescence measurements were used to calculate the Tm values of each sample using the Nanotemper PR.ThermControl software. Data were further analyzed and plotted using GraphPad Prism (v 8.3.1).
On the technique in general: In DSF a fluorescence change marks the thermal transition of the protein.

In data set [3] the test system is HEK293FT cells stably expressing FLAG-vector or FLAG-MAGE-A11. Nature of the data set: Cell viability, alamarBlue, HEK293FT cells. As to conditions: HEK293FT FLAG-MAGE-A11 against FLAG-vector, 24 h; listed as SJ521054. Type of data set: cell-based. The method, then: (§2) To assess cell viability after SJ521054 treatment, 1 × 10^4 cells/ml were treated with SJ521054 (0–40 μM) and incubated for 24 h prior to changing the media and adding alamarBlue (Thermo Fisher Scientific) and incubating for 4 h at 37 °C. Plates were read by measuring the fluorescence with excitation wavelength at 540 nm and emission wavelength at 590 nm on an Enspire plate reader.
(Resazurin is reduced to fluorescent resorufin, in cell work by metabolically active cells.)

Data set [4] deals with MAGE-A11-knockout DAOY cells or those reconstituted with MAGE-A11. As to the kind of experiment: Cell viability, alamarBlue, DAOY cells. Type of data set: cell-based. As to the method:
as §2

Another data set concerns Caco-2 cells. As to the kind of experiment: High throughput Caco-2 permeability. The class given is in vitro ADME. As to the method: as §1

The term Papp A→B denotes how fast a substance crosses the layer from the apical side. Low readings indicate slow passage, high ones fast passage. A word on the Papp B→A: it is how fast a substance crosses the layer from the basolateral side. Take `FC(F)(F)c1ccc2c(NCCCNCc3ccc4[nH]ccc4c3)ccnc2c1` [SJ000521054-02]: in data set [1], the Papp A→B at 2 h, 10 µmol/l turned out to be 11.5 ×10⁻⁶ cm/s and the Papp B→A at 2 h, 10 µmol/l is 14.2 ×10⁻⁶ cm/s. Further, in data set [2] (HEK293FT cells stably expressing FLAG-MAGE-A11, 24 h, listed as SJ521054), the “PCF11 protein levels / PCF11 degradation” value is on record as “blocks PCF11 degradation by MAGE-A11; also recorded: stabilized PCF11 protein levels”. For the same compound, in data set [2] (HEK293FT vector control cells, 24 h), the PCF11 protein levels entry was “had no effect”. The “thermal stabilization of MAGE-A11 (NanoDSF)” value on His-SUMO-MAGE-A11 MHD (listed as SJ521054) is reported as “showed stabilization of MAGE-A11; also recorded: stabilized MAGE-A11”. In data set [3], the cell viability entry is “reduces viability of; also recorded: decreased the viability of MAGE-A11 expressing DAOY and HEK293FT cells to a much greater extent than vector control MAGE-A11-negative cells”. Besides, the cell viability entry in data set [4] (DAOY cells with MAGE-A11 against vector control, 0–40 μM, 24 h, listed as SJ521054) was “reduces viability of MAGE-A11 expressing DAOY cancer cells; also recorded: decreased the viability of MAGE-A11 expressing DAOY and HEK293FT cells to a much greater extent than vector control MAGE-A11-negative cells”. Moreover, the “cytotoxicity independent of MAGE-A11” value in data set [4] (higher concentrations, both cell lines (DAOY and HEK293)) is “shows cytotoxicity to both cell lines”.

On to `c1ccc2c(NCCCNCc3ccc4[nH]ccc4c3)ccnc2c1` [SJ001008066-01], for which, in data set [1], the Papp A→B at 2 h, 10 µmol/l was found to be 8.17 ×10⁻⁶ cm/s and the Papp B→A at 2 h, 10 µmol/l turned out to be 8.09 ×10⁻⁶ cm/s. In addition, in the data set on Caco-2 cells, the “cell permeability in words” value is “cell permeable”. The “thermal stabilization of MAGE-A11 (NanoDSF)” value on His-SUMO-MAGE-A11 MHD (listed as SJ1008066) is given as “showed stabilization of MAGE-A11; also recorded: stabilized MAGE-A11”.
